Experimental data taken from ChEMBL document CHEMBL1201862, “PubChem BioAssay data set” (2004).
The source made the active and inactive calls.

Assays:
[1] = target: T1, Small ubiquitin-related modifier 1 (Homo sapiens, UniProt P63165); test: SUMO1 protein-protein binding blockers, potency – biochemical, FRET, dose response (AID 624383); type: functional; conditions: read-out: IC50_Mean
[2] = target: T1, Small ubiquitin-related modifier 1; test: SUMO1 protein interaction blockers, potency – biochemical, fluorescence polarization, uHTS hits, dose response (AID 624382); type: functional; conditions: read-out: IC50_Mean
[3] = target: T2, Carboxy-terminal domain RNA polymerase II polypeptide A small phosphatase 1 (Homo sapiens, UniProt Q9GZU7); test: CTDSP1 inhibitors, concentration-response, biochemical, absorbance readout, ultra-high-throughput screen actives (AID 540297); type: functional
T2 sequence (Q9GZU7 whole entry): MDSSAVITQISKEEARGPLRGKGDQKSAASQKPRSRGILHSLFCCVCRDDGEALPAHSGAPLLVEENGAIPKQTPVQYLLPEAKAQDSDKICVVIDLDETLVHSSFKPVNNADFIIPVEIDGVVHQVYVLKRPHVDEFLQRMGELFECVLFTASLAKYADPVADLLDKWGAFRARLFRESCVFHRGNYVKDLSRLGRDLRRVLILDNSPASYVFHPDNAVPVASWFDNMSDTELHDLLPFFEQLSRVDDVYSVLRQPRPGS

Protein RecA = target: T3, Protein RecA (Mycobacterium tuberculosis, UniProt P9WHJ3); test: Fluorescence Cell-Free Homogeneous Dose Retest to Identify Inhibitors of RecA-Intein Splicing Activity. [Related pubchem assays (depositor defined):AID2097, AID2223, AID489010, AID492950]; type: functional
T3 sequence (P9WHJ3 whole entry): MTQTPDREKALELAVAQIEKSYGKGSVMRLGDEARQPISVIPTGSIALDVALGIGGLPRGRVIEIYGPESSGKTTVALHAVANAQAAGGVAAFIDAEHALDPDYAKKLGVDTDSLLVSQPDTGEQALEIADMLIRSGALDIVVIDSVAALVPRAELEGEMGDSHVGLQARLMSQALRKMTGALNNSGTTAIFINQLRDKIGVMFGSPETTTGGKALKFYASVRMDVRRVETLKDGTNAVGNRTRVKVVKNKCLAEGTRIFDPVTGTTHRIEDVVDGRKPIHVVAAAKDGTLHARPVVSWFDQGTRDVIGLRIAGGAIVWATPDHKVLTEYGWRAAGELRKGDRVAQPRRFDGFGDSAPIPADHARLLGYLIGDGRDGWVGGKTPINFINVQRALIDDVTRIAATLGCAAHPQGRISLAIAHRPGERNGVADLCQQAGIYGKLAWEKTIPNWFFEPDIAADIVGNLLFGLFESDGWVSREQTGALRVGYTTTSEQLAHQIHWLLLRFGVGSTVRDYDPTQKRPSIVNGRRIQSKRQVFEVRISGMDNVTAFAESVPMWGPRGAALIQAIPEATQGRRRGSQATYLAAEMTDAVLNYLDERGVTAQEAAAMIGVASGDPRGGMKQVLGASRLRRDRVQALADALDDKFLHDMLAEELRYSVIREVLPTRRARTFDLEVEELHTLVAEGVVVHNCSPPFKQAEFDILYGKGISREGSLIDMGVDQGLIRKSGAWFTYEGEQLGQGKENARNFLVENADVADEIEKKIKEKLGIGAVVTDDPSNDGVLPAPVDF

Caspase-6 = target: T4, Caspase-6 (Homo sapiens, UniProt P55212); test: inhibition of CASP6 peptide cleavage – biochemical, VEID-R110 fluorescence, cherry-pick, dose response (AID 720632)
T4 sequence (P55212 whole entry): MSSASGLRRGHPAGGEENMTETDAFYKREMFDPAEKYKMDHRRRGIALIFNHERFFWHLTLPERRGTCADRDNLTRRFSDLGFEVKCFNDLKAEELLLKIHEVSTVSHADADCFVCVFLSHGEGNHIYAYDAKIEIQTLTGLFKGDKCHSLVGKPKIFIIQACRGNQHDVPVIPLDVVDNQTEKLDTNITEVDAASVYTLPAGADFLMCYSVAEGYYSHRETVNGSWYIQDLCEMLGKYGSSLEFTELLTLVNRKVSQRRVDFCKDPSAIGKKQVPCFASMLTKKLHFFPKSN

[4] = target: T5, Replicative DNA helicase DnaB (Mycobacterium tuberculosis, UniProt P9WMR3); test: DnaB intein splicing inhibitors, dose response, biochemical, cell-free fluorescence (AID 449749); type: functional
T5 sequence (P9WMR3 whole entry): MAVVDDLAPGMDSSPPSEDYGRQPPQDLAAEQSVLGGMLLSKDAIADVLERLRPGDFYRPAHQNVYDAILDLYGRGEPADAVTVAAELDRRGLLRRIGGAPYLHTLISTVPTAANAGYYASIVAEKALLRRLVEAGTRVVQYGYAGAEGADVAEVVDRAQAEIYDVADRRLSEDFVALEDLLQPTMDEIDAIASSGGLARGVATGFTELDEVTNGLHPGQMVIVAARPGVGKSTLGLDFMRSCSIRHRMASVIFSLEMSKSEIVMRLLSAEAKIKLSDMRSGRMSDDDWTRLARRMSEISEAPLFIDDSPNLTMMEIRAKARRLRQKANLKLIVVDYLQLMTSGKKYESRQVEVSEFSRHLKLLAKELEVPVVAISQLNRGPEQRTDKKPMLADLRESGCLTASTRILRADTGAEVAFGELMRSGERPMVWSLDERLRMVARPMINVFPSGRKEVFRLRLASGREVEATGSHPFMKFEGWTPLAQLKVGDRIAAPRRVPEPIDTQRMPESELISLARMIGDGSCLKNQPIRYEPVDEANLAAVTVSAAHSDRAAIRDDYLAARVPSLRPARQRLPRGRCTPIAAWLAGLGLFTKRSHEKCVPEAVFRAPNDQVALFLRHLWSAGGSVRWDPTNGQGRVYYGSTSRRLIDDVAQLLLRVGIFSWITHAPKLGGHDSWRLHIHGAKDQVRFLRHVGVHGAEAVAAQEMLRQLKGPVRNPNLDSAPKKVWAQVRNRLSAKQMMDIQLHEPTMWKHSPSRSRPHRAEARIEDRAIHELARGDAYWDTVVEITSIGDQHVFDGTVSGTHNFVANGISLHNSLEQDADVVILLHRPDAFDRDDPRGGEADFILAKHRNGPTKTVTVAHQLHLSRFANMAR

[5] = Luminescence Cell-Based Dose Response HTS to Identify Inhibitors of 5'UTR Stem-Loop Driven Prion Protein mRNA Translation in H4 Neuroglioblastoma Cells. [Related pubchem assays: 1827 (Project Summary), 1813 (Primary HTS)]; type: functional
[6] = alpha-synuclein stem-loop luciferase translation blockers – H4 neuroglioma cells, luminescence, confirmation (AID 1988); type: functional, cell-based
[7] = general mammalian cell viability loss – activator set, cherry-pick, cytotoxicity control for miR-122 modulator project, dose response (AID 720690); type: functional, cell-based;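 note: HEK293T human cells scored for general mammalian cytotoxicity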
[8] = luciferase reporter signal suppression in cells – H4 neuroglioma cells, luminescence, dose response (AID 1990); type: functional, cell-based
[9] = target: T6, Sentrin-specific protease 8 (Homo sapiens, UniProt Q96LD8); type: functional
T6 sequence (Q96LD8 whole entry): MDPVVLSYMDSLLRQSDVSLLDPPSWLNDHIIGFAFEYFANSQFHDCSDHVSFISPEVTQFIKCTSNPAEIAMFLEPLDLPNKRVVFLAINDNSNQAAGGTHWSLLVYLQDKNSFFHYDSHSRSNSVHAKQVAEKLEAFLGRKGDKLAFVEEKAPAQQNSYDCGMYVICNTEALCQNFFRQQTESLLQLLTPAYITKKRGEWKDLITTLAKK

[10] = target: T6, Sentrin-specific protease 8; type: functional; remark: listed apart in the source
Beta-galactosidase = Beta-galactosidase (Escherichia coli, UniProt Q8VNN2); test: Dose response counterscreen for EBI2 assay utilizing the enzyme, b-galactosidase.; type: functional
Chain of Beta-galactosidase (Q8VNN2 whole entry): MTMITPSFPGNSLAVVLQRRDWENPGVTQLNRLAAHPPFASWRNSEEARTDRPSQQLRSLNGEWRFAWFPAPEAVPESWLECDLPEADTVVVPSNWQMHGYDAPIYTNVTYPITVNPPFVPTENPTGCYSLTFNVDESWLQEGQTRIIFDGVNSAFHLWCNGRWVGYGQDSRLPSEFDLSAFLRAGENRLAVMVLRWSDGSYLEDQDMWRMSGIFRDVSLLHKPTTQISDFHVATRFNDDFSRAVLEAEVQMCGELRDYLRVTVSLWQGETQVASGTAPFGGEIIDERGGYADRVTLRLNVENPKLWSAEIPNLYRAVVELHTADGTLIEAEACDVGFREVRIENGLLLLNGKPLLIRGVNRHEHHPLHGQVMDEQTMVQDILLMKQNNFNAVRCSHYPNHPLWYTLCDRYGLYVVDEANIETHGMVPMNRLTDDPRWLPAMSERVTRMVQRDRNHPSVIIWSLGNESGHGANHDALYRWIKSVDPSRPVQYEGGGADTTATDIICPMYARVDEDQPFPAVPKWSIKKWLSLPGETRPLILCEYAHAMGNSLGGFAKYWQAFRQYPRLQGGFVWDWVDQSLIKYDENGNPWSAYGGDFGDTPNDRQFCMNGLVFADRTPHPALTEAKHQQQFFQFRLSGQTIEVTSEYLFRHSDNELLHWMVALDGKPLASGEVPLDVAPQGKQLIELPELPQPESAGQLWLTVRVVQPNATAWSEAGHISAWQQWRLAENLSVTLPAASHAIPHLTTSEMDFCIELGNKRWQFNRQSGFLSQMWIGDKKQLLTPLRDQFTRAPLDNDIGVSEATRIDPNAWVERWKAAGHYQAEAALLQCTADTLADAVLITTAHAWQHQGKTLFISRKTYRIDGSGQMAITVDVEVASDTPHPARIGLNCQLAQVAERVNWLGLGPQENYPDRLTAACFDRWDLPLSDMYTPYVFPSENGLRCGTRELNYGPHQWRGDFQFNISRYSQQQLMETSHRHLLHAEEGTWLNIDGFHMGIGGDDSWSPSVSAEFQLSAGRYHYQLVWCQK

[11] = target: T7, Corticotropin-releasing factor receptor 2/Corticotropin-releasing factor-binding protein (Homo sapiens, UniProt P24387+Q13324); test: Dose Response confirmation of uHTS hits for small molecule antagonists of the CRF-binding protein and CRF-R2 receptor complex.; type: functional; conditions: read-out: IC50_Mean
T7 sequence (Q13324 whole entry): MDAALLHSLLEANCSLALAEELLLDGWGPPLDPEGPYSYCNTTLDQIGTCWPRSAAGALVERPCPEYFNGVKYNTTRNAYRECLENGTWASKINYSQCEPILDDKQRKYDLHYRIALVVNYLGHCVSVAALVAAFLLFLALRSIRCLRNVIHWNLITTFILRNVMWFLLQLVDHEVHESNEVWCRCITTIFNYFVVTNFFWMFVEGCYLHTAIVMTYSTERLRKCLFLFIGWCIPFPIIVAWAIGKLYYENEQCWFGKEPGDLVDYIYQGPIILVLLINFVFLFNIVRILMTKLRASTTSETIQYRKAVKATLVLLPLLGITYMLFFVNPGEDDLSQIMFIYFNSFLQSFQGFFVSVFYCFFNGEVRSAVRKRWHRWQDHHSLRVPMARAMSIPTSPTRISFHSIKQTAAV
T7 sequence (P24387 whole entry): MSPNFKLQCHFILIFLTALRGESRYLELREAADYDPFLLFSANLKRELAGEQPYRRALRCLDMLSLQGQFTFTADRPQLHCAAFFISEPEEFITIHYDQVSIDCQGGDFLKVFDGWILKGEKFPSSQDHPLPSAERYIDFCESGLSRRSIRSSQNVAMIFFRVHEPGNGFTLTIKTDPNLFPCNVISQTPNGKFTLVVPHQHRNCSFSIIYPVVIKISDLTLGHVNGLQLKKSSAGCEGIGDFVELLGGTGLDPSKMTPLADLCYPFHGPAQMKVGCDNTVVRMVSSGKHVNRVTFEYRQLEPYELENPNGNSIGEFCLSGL

[12] = target: T7, Corticotropin-releasing factor receptor 2/Corticotropin-releasing factor-binding protein; test: activators of CRF receptor 2 with binding protein – uHTS hits, confirmation (AID 602473); type: functional; conditions: read-out: EC50_Mean
[13] = Counterscreen for activators of the function of SWI/SNF related, matrix associated, actin dependent regulator of chromatin, subfamily a, member 2 (SMARCA2, BRM): Luminescence-based cell-based high throughput dose response assay to identify non-selective compounds using the VP16 reporter assay.; type: functional
[14] = target: T8, Histone-lysine N-methyltransferase NSD2 (Homo sapiens, UniProt O96028); type: biochemical
T8 sequence (O96028 whole entry): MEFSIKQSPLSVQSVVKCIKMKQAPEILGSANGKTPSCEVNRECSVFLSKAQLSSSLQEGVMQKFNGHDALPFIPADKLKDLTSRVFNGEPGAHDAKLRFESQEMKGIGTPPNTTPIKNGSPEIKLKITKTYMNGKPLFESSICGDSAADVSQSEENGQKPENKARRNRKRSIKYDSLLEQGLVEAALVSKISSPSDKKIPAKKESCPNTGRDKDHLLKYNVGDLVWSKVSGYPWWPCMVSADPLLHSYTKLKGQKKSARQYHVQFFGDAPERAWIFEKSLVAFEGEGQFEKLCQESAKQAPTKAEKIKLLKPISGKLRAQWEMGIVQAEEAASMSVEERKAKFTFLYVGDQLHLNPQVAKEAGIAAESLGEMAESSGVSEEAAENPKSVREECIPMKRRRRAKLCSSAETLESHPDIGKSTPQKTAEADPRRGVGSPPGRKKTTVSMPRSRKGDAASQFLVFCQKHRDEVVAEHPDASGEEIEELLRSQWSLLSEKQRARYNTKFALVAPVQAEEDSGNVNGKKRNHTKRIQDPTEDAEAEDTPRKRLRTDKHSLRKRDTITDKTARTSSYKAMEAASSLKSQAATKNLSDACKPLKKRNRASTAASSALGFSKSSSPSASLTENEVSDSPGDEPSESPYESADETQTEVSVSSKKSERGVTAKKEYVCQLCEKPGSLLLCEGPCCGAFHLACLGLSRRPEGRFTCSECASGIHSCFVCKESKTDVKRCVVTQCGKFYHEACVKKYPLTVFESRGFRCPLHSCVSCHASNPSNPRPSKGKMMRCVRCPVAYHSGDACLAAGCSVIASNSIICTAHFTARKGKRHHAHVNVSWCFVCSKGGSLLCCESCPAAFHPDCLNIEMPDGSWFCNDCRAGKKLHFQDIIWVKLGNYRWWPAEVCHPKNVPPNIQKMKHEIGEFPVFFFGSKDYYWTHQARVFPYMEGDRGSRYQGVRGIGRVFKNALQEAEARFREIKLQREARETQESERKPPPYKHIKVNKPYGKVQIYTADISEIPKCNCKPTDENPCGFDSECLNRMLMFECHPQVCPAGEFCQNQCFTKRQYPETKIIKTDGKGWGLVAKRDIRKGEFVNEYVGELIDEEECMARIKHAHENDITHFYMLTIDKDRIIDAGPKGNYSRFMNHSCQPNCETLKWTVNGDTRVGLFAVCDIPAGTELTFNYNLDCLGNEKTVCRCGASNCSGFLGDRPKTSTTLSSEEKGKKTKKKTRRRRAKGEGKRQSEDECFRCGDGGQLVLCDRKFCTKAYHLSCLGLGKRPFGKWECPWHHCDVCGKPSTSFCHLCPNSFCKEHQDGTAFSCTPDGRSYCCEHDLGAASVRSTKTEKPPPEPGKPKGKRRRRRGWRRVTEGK

[15] = target: SWI/SNF-related matrix-associated actin-dependent regulator of chromatin subfamily A member 2 (Homo sapiens, UniProt P51531); test: Luminescence-based cell-based high throughput dose response assay to identify activators of the function of SWI/SNF related, matrix associated, actin dependent regulator of chromatin, subfamily a, member 2 (SMARCA2, BRM).; type: functional
Chain of SWI/SNF-related matrix-associated actin-dependent regulator of chromatin subfamily A member 2 (P51531 whole entry): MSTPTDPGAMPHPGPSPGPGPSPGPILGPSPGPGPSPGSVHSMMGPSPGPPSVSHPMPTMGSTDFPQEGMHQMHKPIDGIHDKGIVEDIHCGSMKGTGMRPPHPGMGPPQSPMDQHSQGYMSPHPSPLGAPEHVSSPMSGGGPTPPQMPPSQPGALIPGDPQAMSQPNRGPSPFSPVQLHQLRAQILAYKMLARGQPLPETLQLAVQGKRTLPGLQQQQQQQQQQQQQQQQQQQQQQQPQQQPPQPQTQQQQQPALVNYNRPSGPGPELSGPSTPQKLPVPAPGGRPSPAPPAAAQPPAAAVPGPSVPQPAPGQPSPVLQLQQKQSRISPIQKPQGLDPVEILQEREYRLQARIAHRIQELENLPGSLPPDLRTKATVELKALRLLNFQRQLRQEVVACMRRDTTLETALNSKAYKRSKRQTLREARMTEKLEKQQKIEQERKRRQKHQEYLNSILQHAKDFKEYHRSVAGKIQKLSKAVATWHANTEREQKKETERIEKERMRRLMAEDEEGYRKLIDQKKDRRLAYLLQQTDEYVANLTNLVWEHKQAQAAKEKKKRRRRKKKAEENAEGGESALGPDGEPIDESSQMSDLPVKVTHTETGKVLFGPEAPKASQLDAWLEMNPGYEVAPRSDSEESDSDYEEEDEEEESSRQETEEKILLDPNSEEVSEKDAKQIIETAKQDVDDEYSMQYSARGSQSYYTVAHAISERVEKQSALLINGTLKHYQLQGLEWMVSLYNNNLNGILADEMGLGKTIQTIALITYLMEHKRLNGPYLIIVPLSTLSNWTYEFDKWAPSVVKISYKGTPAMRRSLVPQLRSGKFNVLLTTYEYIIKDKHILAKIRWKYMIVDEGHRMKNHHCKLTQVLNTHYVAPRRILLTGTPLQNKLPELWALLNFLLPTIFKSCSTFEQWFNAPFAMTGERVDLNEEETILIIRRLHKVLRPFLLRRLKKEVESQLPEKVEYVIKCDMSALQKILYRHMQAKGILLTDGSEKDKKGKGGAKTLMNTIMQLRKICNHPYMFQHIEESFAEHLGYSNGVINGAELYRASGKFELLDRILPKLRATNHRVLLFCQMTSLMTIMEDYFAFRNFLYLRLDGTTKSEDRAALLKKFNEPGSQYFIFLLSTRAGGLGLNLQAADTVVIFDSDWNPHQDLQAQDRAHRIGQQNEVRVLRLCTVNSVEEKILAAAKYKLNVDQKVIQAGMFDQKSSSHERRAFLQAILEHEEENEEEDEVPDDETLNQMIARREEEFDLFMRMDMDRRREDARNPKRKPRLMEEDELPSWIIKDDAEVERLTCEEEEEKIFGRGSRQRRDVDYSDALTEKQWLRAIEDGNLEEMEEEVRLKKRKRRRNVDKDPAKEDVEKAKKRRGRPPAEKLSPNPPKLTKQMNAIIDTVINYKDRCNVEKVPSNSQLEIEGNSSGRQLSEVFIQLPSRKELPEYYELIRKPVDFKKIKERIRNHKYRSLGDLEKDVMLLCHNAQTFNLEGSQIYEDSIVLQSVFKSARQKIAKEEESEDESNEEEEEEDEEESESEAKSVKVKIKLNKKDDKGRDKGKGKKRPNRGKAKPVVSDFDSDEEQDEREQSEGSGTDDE

T1 sequence (P63165 whole entry): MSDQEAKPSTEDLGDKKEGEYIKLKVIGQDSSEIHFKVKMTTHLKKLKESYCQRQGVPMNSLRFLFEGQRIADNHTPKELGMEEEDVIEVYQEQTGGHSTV

## CC1=NN(c2ccc(Cl)c(C(=O)O)c2)C(=O)C1
[1]
  IC50: 9.17 µM (active)
[2]
  IC50: > 66.6 µM (inactive)
[3]
  IC50: 8.96 µM (active)
Protein RecA
  EC50: 2.15 µM (active)
Caspase-6
  AC50: 1.16 µM (active)
[4]
  AC50: 1.88 µM (active)

## CCOc1ccc(-c2nnc(SCC(=O)Nc3ccc4c(c3)c3ccccc3n4CC)n2N)cc1
[5]
  EC50: > 120 µM (not active)
[6]
  EC50: 11.6 µM (active)
[7]
  AC50: 10.3 µM (active)
[8]
  EC50: 42.3 µM (active)

## O=C(COc1ccccc1)N1CCc2ccccc2C1
[9]
  IC50: 93.6 µM (inactive)
[10]
  IC50: 23.7 µM (active)

## CCOC(=O)N1CCN(C(=O)/C=C/c2ccc(OC)cc2)CC1
Beta-galactosidase
  IC50: > 80 µM (inactive)

## CC(=O)N1CCOc2ccc(S(=O)(=O)N3CCC(C(=O)NCc4ccc(C)cc4)CC3)cc21
[11]
  IC50: > 47.1 µM (inactive)
[12]
  EC50: > 53 µM (inactive)
Beta-galactosidase
  IC50: > 80 µM (inactive)

## O=[N+]([O-])c1ccc(N(CCO)CCO)c2c1no[n+]2[O-]
[13]
  EC50: > 91.2 µM (inactive)
[14]
  AC50: 4.45 µM (active)
[15]
  EC50: > 91.2 µM (inactive)

## CC(C)CSc1nnc(-c2ccco2)n1C
[13]
  EC50: > 91.2 µM (inactive)
[15]
  EC50: > 91.2 µM (inactive)
